# Source: ChEMBL document CHEMBL1201862, “PubChem BioAssay data set” (2004)
#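 Cultured in 96-well plates, cells were exposed to test compound for 48 hours across five concentrations. The concentration for 50% growth inhibition is given as GI50.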 Activity calls are given as the source filed them. Rule as the data show it: active = GI50 up to about 1.1 µM and inactive = higher.
# Experiments:
# Test in all cases: NCI tumour cell line growth inhibition, 48 h
# [1] = test system: MDA-N
# [2] = test system: IGROV-1
# [3] = test system: PC-3
# [4] = test system: HCC 2998
# [5] = test system: MDA-MB-435
# [6] = test system: CCRF-CEM
# [7] = test system: NCI-H23
# [8] = test system: OVCAR-5
# [9] = test system: SNB-75
# [10] = test system: SF-295
# [11] = test system: M14
# [12] = test system: RPMI-8226
# [13] = test system: NCI-H460
# [14] = test system: CAKI-1
# [15] = test system: BT-549
# [16] = test system: ACHN
# [17] = test system: HL-60
# [18] = test system: NCI-H522
# [19] = test system: TK-10
# [20] = test system: SK-OV-3
SMILES,GI50 [1],GI50 [2],GI50 [3],GI50 [4],GI50 [5],GI50 [6],GI50 [7],GI50 [8],GI50 [9],GI50 [10],GI50 [11],GI50 [12],GI50 [13],GI50 [14],GI50 [15],GI50 [16],GI50 [17],GI50 [18],GI50 [19],GI50 [20]
Cc1cn(C(C)OCCN2C(=O)c3ccccc3C2=O)c(=O)[nH]c1=O (stereo not given),> 100 µM (inactive),> 100 µM (inactive),> 100 µM (inactive),> 100 µM (inactive),> 100 µM (inactive),> 100 µM (inactive),> 100 µM (inactive),> 100 µM (inactive),> 100 µM (inactive),> 100 µM (inactive),> 100 µM (inactive),> 100 µM (inactive),> 100 µM (inactive),> 100 µM (inactive),> 100 µM (inactive),> 100 µM (inactive),,,,
COC1=C(C)C(=O)c2c(c(COC(N)=O)c3n2CC2C3N2C)C1=O (stereo not given),0.019 µM (active),0.0425 µM (active),0.0555 µM (active),,0.0189 µM (active),0.0154 µM (active),< 0.0108 µM (active),0.0313 µM (active),< 0.0179 µM (active),< 0.01 µM (active),< 0.01 µM (active),< 0.0154 µM (active),< 0.01 µM (active),< 0.01 µM (active),0.0222 µM (active),< 0.01 µM (active),0.0296 µM (active),< 0.0124 µM (active),0.0117 µM (active),< 0.0156 µM (active)
Cc1cc(S(N)(=O)=O)c(SCc2nc(N)nc(N(C)C)n2)cc1Cl,> 10 µM (inactive),> 10 µM (inactive),> 10 µM (inactive),> 10 µM (inactive),,> 10 µM (inactive),> 10 µM (inactive),> 10 µM (inactive),> 10 µM (inactive),> 10 µM (inactive),> 10 µM (inactive),> 10 µM (inactive),> 10 µM (inactive),> 10 µM (inactive),> 10 µM (inactive),> 10 µM (inactive),> 10 µM (inactive),> 10 µM (inactive),> 10 µM (inactive),> 10 µM (inactive)
N#CC1(C#N)N[C@@H](c2ccsc2)[C@H]2C(=O)N(c3ccccc3)C(=O)[C@H]21,38.3 µM (inactive),60.7 µM (inactive),53.7 µM (inactive),,45.7 µM (inactive),,> 100 µM (inactive),,> 100 µM (inactive),> 100 µM (inactive),,18.7 µM (inactive),,43 µM (inactive),97.7 µM (inactive),> 100 µM (inactive),21.4 µM (inactive),> 100 µM (inactive),> 100 µM (inactive),> 100 µM (inactive)
Cn1c(=O)sc2cc(C(=S)N3CCN(c4ccccc4)CC3)ccc21,> 100 µM (inactive),46.5 µM (inactive),31.3 µM (inactive),,> 100 µM (inactive),40.7 µM (inactive),34.1 µM (inactive),97.1 µM (inactive),28.7 µM (inactive),19.9 µM (inactive),> 100 µM (inactive),> 100 µM (inactive),51.9 µM (inactive),> 100 µM (inactive),60.7 µM (inactive),70.3 µM (inactive),33.6 µM (inactive),,71.9 µM (inactive),32.3 µM (inactive)
C[C@@H]1CCC2[C@@H](C)C(=O)O[C@@H]3C4C[C@@H]1[C@@]23OO[C@@]4(C)O (stereo not given in full),55.3 µM (inactive),19.7 µM (inactive),> 100 µM (inactive),> 100 µM (inactive),72.6 µM (inactive),54.5 µM (inactive),88.5 µM (inactive),> 100 µM (inactive),75.5 µM (inactive),> 100 µM (inactive),> 100 µM (inactive),> 100 µM (inactive),52 µM (inactive),> 100 µM (inactive),> 100 µM (inactive),58.7 µM (inactive),,40.8 µM (inactive),> 100 µM (inactive),
Oc1c(OCc2nnc(CCCCCCCCc3nnc(COc4ccc5ccccc5c4O)o3)o2)ccc2ccccc12,> 100 µM (inactive),,> 100 µM (inactive),> 100 µM (inactive),> 100 µM (inactive),,61.2 µM (inactive),> 100 µM (inactive),62.7 µM (inactive),> 100 µM (inactive),> 100 µM (inactive),> 100 µM (inactive),> 100 µM (inactive),29.8 µM (inactive),> 100 µM (inactive),> 100 µM (inactive),,> 100 µM (inactive),> 100 µM (inactive),44.5 µM (inactive)
COC(=O)c1ccccc1CC1Cc2c(C)ccc(C)c2C1=O (stereo not given),,32 µM (inactive),34.8 µM (inactive),36.9 µM (inactive),23.1 µM (inactive),22.2 µM (inactive),15.4 µM (inactive),49.1 µM (inactive),36.1 µM (inactive),28.7 µM (inactive),34.8 µM (inactive),,30.2 µM (inactive),34.5 µM (inactive),34.5 µM (inactive),33.8 µM (inactive),23.3 µM (inactive),21.6 µM (inactive),20.5 µM (inactive),38.6 µM (inactive)
O=C(NC(=S)Nc1ccc([N+](=O)[O-])cc1)c1ccc2c(c1)Sc1ccccc1O2,> 100 µM (inactive),98.2 µM (inactive),> 100 µM (inactive),,> 100 µM (inactive),> 100 µM (inactive),> 100 µM (inactive),> 100 µM (inactive),13.8 µM (inactive),89.1 µM (inactive),> 100 µM (inactive),,> 100 µM (inactive),> 100 µM (inactive),> 100 µM (inactive),49.9 µM (inactive),> 100 µM (inactive),48.1 µM (inactive),44.2 µM (inactive),77.1 µM (inactive)
O=C(NNC(=O)c1ccco1)c1ccco1,> 100 µM (inactive),> 100 µM (inactive),> 100 µM (inactive),,> 100 µM (inactive),> 100 µM (inactive),,> 100 µM (inactive),55 µM (inactive),> 100 µM (inactive),> 100 µM (inactive),> 100 µM (inactive),> 100 µM (inactive),> 100 µM (inactive),> 100 µM (inactive),,> 100 µM (inactive),15 µM (inactive),> 100 µM (inactive),> 100 µM (inactive)
CC1(C)OC2COC3([C@@H]4OC(C)(C)O[C@@H]4CO)OC(C)(C)OC3C2O1 (stereo not given in full),> 100 µM (inactive),> 100 µM (inactive),> 100 µM (inactive),> 100 µM (inactive),> 100 µM (inactive),> 100 µM (inactive),> 100 µM (inactive),> 100 µM (inactive),> 100 µM (inactive),> 100 µM (inactive),> 100 µM (inactive),> 100 µM (inactive),> 100 µM (inactive),> 100 µM (inactive),> 100 µM (inactive),> 100 µM (inactive),,,,
Cc1cn(C2CCN(CC3COC(C)(C)O3)O2)c(=O)[nH]c1=O (stereo not given),> 100 µM (inactive),> 100 µM (inactive),> 100 µM (inactive),,> 100 µM (inactive),> 100 µM (inactive),> 100 µM (inactive),> 100 µM (inactive),> 100 µM (inactive),> 100 µM (inactive),> 100 µM (inactive),> 100 µM (inactive),> 100 µM (inactive),> 100 µM (inactive),> 100 µM (inactive),> 100 µM (inactive),> 100 µM (inactive),> 100 µM (inactive),> 100 µM (inactive),> 100 µM (inactive)
COC(=O)c1ccccc1Nc1ccccc1C(=O)OC,> 100 µM (inactive),89.3 µM (inactive),39.5 µM (inactive),,> 100 µM (inactive),> 100 µM (inactive),> 100 µM (inactive),> 100 µM (inactive),39.3 µM (inactive),39.4 µM (inactive),> 100 µM (inactive),64.1 µM (inactive),> 100 µM (inactive),> 100 µM (inactive),> 100 µM (inactive),> 100 µM (inactive),> 100 µM (inactive),32.1 µM (inactive),41.2 µM (inactive),> 100 µM (inactive)
Cc1c(Cl)nc(Nc2nc3ccccc3[nH]2)nc1Cl,> 100 µM (inactive),36.2 µM (inactive),> 100 µM (inactive),,> 100 µM (inactive),,92.9 µM (inactive),> 100 µM (inactive),> 100 µM (inactive),> 100 µM (inactive),> 100 µM (inactive),> 100 µM (inactive),> 100 µM (inactive),6.71 µM (inactive),> 100 µM (inactive),> 100 µM (inactive),> 100 µM (inactive),89.5 µM (inactive),> 100 µM (inactive),> 100 µM (inactive)
COc1ccc(NC(C)c2ccncc2)cc1 (stereo not given),> 100 µM (inactive),,> 100 µM (inactive),> 100 µM (inactive),> 100 µM (inactive),> 100 µM (inactive),> 100 µM (inactive),> 100 µM (inactive),> 100 µM (inactive),> 100 µM (inactive),> 100 µM (inactive),> 100 µM (inactive),> 100 µM (inactive),> 100 µM (inactive),> 100 µM (inactive),> 100 µM (inactive),,> 100 µM (inactive),> 100 µM (inactive),18 µM (inactive)
